Columns and labels:
[1] = molecular target: panel of human cytochrome P450s, receptors, and ion channels (Homo sapiens, UniProt P41595); settings: assayed at 10 μM
[2] = molecular target: panel of human cytochrome P450s, receptors, and ion channels (Homo sapiens, UniProt P23975); settings: assayed at 10 μM
[3] = molecular target: panel of human cytochrome P450s, receptors, and ion channels (Homo sapiens, UniProt P35408); settings: assayed at 10 μM
[4] = molecular target: panel of human cytochrome P450s, receptors, and ion channels (Homo sapiens, UniProt P02708); settings: assayed at 10 μM
Chain of panel of human cytochrome P450s, receptors, and ion channels (Homo sapiens, UniProt P02708) (P02708 21-457): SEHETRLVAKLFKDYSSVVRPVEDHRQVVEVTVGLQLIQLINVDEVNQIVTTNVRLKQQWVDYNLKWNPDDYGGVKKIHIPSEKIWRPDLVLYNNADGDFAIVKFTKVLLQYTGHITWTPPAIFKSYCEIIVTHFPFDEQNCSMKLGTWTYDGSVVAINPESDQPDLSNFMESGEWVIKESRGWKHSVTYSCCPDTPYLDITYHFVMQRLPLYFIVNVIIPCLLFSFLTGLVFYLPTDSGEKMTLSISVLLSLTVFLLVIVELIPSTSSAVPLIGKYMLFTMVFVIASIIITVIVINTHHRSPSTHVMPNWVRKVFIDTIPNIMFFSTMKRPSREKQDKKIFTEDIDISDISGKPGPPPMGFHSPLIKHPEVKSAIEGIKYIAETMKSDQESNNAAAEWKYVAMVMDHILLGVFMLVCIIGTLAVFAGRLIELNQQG

[5] = molecular target: panel of human cytochrome P450s, receptors, and ion channels (Homo sapiens, UniProt P30542); settings: assayed at 10 μM
Chain of panel of human cytochrome P450s, receptors, and ion channels (Homo sapiens, UniProt P30542) (P30542 whole entry): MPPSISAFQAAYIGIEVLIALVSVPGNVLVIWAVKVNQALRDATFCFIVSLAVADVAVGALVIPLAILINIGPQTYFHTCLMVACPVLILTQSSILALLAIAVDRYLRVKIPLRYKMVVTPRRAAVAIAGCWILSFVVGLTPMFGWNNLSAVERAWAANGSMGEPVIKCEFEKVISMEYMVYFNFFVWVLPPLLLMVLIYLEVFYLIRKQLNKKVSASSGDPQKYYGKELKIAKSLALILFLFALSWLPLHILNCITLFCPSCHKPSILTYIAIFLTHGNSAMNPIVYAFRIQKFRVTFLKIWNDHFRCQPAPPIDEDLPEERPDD

[6] = molecular target: panel of human cytochrome P450s, receptors, and ion channels (Homo sapiens, UniProt P35367); settings: assayed at 10 μM
[7] = molecular target: panel of human cytochrome P450s, receptors, and ion channels (Homo sapiens, UniProt P08172); settings: assayed at 10 μM
[8] = test system: panel of human cytochrome P450s, receptors, and ion channels
[9] = molecular target: panel of human cytochrome P450s, receptors, and ion channels (Rattus norvegicus, UniProt P43140); settings: assayed at 10 μM
[10] = molecular target: panel of human cytochrome P450s, receptors, and ion channels (Homo sapiens, UniProt P08913); settings: assayed at 10 μM
Chain of panel of human cytochrome P450s, receptors, and ion channels (Homo sapiens, UniProt P08913) (P08913 whole entry): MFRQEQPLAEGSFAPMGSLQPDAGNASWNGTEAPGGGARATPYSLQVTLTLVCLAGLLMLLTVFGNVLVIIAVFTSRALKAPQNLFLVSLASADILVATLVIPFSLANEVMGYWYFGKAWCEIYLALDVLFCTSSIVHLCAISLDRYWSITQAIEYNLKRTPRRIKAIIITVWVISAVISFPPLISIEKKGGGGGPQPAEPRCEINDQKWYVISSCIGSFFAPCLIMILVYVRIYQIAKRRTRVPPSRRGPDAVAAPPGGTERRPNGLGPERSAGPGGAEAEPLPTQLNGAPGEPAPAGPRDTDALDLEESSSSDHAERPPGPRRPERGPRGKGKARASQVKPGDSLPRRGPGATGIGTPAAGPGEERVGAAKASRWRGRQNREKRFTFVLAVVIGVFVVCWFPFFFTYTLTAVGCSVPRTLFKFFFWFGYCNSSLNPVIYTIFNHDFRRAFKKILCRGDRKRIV

[11] = molecular target: panel of human cytochrome P450s, receptors, and ion channels (Homo sapiens, UniProt P35372); settings: assayed at 10 μM
Chain of panel of human cytochrome P450s, receptors, and ion channels (Homo sapiens, UniProt P35372) (P35372 whole entry): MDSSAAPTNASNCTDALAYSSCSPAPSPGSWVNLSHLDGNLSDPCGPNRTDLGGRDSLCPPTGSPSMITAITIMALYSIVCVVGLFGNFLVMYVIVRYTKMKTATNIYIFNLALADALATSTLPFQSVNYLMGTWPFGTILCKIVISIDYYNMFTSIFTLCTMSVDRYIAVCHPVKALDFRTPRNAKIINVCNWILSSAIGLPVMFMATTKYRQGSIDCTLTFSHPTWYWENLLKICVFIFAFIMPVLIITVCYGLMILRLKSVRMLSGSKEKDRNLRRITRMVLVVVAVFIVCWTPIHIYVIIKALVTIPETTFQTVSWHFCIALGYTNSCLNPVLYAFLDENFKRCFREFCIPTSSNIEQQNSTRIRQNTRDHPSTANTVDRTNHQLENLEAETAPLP

[12] = molecular target: panel of human cytochrome P450s, receptors, and ion channels (Homo sapiens, UniProt Q99720); settings: assayed at 10 μM
Chain of panel of human cytochrome P450s, receptors, and ion channels (Homo sapiens, UniProt Q99720) (Q99720 whole entry): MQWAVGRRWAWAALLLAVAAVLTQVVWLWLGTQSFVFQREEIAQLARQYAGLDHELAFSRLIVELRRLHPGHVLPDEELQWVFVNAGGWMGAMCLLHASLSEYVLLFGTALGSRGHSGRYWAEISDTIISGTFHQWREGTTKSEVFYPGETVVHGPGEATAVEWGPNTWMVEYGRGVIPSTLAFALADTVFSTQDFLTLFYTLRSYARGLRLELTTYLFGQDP

[13] = molecular target: panel of human cytochrome P450s, receptors, and ion channels (Homo sapiens, UniProt P21728); settings: assayed at 10 μM
Chain of panel of human cytochrome P450s, receptors, and ion channels (Homo sapiens, UniProt P21728) (P21728 whole entry): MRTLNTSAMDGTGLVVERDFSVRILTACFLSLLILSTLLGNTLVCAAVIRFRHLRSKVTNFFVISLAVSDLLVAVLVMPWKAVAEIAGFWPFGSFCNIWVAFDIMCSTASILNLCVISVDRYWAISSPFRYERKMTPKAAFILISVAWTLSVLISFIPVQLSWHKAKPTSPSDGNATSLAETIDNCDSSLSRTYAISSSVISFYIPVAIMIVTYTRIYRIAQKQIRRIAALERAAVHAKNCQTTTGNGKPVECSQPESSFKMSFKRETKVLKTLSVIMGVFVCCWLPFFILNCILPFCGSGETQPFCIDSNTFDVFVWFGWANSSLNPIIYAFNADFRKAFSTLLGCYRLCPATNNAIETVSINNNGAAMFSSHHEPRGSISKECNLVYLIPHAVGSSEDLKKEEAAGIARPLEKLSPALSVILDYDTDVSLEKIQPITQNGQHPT

[14] = molecular target: panel of human cytochrome P450s, receptors, and ion channels (Homo sapiens, UniProt P14416); settings: assayed at 10 μM
Chain of panel of human cytochrome P450s, receptors, and ion channels (Homo sapiens, UniProt P14416) (P14416 whole entry): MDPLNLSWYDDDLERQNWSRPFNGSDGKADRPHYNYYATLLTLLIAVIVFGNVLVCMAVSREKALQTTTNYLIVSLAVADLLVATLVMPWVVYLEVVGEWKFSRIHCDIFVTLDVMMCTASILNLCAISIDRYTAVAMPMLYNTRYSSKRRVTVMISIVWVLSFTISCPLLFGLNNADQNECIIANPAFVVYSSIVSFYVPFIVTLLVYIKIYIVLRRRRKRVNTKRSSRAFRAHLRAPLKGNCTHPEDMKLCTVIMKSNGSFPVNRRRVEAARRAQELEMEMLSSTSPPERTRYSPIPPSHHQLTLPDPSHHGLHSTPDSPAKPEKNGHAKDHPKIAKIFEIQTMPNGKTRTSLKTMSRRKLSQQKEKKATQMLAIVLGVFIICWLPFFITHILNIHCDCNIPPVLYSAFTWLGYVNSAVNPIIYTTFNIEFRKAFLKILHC

[15] = molecular target: panel of human cytochrome P450s, receptors, and ion channels (Homo sapiens, UniProt P07550); settings: assayed at 10 μM
Chain of panel of human cytochrome P450s, receptors, and ion channels (Homo sapiens, UniProt P07550) (P07550 whole entry): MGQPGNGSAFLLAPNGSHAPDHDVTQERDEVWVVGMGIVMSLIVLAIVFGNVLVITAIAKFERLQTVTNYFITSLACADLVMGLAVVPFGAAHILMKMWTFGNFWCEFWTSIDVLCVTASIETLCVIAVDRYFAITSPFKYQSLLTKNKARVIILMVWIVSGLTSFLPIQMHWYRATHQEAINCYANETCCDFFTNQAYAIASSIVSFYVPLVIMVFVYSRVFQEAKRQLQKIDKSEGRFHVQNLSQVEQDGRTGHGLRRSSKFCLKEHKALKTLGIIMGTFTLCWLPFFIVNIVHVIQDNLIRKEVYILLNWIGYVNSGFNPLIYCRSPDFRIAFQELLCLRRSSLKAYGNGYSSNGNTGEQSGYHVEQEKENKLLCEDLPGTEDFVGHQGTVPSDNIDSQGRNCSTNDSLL

[16] = molecular target: panel of human cytochrome P450s, receptors, and ion channels (Homo sapiens, UniProt P21554); settings: assayed at 10 μM
[17] = molecular target: panel of human cytochrome P450s, receptors, and ion channels (Homo sapiens, UniProt P29274); settings: assayed at 10 μM
Chain of panel of human cytochrome P450s, receptors, and ion channels (Homo sapiens, UniProt P29274) (P29274 whole entry): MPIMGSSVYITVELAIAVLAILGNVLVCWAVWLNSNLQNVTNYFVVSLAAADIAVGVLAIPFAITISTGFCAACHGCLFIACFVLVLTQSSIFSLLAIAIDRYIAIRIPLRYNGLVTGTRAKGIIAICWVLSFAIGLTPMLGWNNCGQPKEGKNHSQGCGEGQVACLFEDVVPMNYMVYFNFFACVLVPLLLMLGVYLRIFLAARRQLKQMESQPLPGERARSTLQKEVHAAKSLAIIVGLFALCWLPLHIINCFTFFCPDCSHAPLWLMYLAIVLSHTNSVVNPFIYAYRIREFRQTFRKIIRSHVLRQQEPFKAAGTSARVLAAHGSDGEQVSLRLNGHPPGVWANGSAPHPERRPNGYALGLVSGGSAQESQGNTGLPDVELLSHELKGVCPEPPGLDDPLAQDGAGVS

CYP450 2D6 = CYP450 2D6 (Homo sapiens, UniProt P10635); assay: Cytochrome P450 inhibition, CYP2D6 (Eurofins Panlabs panel); format: in vitro ADME; settings: assayed at 10 μM
Chain of CYP450 2D6 (P10635 whole entry): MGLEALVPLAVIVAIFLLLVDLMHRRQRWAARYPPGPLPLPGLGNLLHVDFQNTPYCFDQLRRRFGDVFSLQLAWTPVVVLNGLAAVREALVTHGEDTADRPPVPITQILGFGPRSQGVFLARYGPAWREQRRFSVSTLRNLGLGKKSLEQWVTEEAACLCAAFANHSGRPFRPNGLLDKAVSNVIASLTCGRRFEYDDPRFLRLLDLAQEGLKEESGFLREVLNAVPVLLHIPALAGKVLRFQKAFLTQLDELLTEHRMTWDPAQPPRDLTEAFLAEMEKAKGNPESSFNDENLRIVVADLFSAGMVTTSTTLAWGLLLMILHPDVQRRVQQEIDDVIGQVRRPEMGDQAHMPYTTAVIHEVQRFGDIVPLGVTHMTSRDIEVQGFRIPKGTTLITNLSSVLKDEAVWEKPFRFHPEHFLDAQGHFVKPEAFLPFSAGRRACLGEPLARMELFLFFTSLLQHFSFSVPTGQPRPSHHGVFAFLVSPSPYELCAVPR
Method: Cytochrome P450 Inhibition.
Assessment of off-target effects of priority compounds. To assess potential off-target effects, we will evaluate prioritized hits validated by in vivo testing in the Eurofins Panlabs HitProfilingScreen+CYP450 assay panel, which is performed by Eurofins as a fee for service. The assay panel of consists of assays for 30 receptors and transporters plus the five major CYP450 enzymes (1A2, 2C19, 2C9, 2D6, 3A4).

Chain of panel of human cytochrome P450s, receptors, and ion channels (Homo sapiens, UniProt P35408) (P35408 whole entry): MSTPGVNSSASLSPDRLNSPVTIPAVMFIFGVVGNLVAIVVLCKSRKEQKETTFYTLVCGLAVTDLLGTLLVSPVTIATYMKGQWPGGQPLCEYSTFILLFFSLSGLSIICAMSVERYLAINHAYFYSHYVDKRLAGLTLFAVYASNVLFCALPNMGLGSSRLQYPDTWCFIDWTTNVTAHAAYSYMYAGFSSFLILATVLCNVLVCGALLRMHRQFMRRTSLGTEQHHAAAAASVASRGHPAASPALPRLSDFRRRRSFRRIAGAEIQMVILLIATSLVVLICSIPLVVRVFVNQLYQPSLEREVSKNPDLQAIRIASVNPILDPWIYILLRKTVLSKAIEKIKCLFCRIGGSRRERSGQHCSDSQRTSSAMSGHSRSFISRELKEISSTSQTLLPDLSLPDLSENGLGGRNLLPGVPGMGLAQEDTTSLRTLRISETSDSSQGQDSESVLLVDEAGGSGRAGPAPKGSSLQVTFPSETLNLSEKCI

Structure (SMILES): CCC(Oc1ccc(Cl)c(Cl)c1Cl)C(=O)NCc1ccc(F)cc1 (stereo not shown) [MBX-4532]
- Serotonin (5-Hydroxytryptamine) 5-HT2B [1]: 59
- Transporter, Norepinephrine (NET) [2]: 61
- Prostanoid EP4 [3]: −6
- Nicotinic Acetylcholine α1, Bungarotoxin [4]: −17
- Adenosine A1 [5]: 15
- Histamine H1 [6]: 23
- Muscarinic M2 [7]: 23
- Calcium Channel L-Type, Dihydropyridine ([8]; assayed at 10 μM): 56
- GABAA, Flunitrazepam, Central ([8]; assayed at 10 μM): −1
- GABAA, Muscimol, Central ([8]; assayed at 10 μM): 2
- Glutamate, NMDA, Phencyclidine ([8]; assayed at 10 μM): 29
- Imidazoline I2, Central ([8]; assayed at 10 μM): 27
- Nicotinic Acetylcholine αβ4 ([8]; assayed at 10 μM): 7
- Phorbol Ester ([8]; assayed at 10 μM): 5
- Potassium Channel [KATP] ([8]; assayed at 10 μM): 0
- Rolipram ([8]; assayed at 10 μM): 23
- Sodium Channel, Site 2 ([8]; assayed at 10 μM): 39
- specificity vs mammalian receptors and enzymes, including hERG ([8]; assessment in text): not specific enough
- Adrenergic α1A [9]: 12
- Adrenergic α2A [10]: 23
- Opiate μ (OP3, MOP) [11]: 26
- Sigma σ1 [12]: 70
- Dopamine D1 [13]: 0
- Dopamine D2S [14]: 11
- Adrenergic β2 [15]: 14
- Cannabinoid CB1 [16]: 16
- Adenosine A2A [17]: 10
- CYP450, 2D6 (CYP450 2D6): 0
